# Reference: PubChem BioAssay (NCI)
#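 96-well plates; 48 h exposure; 5 concentrations. Endpoints by linear interpolation between flanking doses. Not reached: highest tested concentration assigned. At the GI50, growth is halved. TGI denotes the concentration required for complete inhibition of growth.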
# Test system: CAKI-1 renal
# Assay: inhibition of tumour cell growth, NCI panel, 48 h
Structure (SMILES),TGI [µM],GI50 [nM]
Cn1c(=O)c(-c2ccccc2)c(N=[N+]=[N-])c2ccccc21,> 100,
CCC(/C=C/C1OC(=O)C=CC1C)=C\C(C)C/C=C/C(C)=C/C(C)C(=O)C(C)C(O)C(C)C/C(C)=C/C(=O)O (stereo not drawn),,< 0.001
CC1(C)N=C(N)N=C(N)N1c1ccc(CCc2ccccc2)cc1,> 100,
CN(C)CCCN1CCC2(CCC(C(C)(C)C)CC2)CC1,7.55,
Cc1[nH]nc(C(F)(F)F)c1N=NN1CCOCC1,4.67,
C=C(C)[C@@H]1CC[C@]2(C(=O)NC3CCCCC3)CC[C@]3(C)[C@H](CC[C@@H]4[C@@]5(C)CCCNC(C)(C)[C@@H]5CC[C@]43C)[C@@H]12,2.93,1560
S=C(S)NCNC(=S)S.[Zn+2],> 100,
CC1(CCOCc2ccccc2)NC(=O)NC1=O (stereo not drawn),> 100,
O=C(Cn1c[n+](CC(=O)c2ccc(-c3ccccc3)cc2)c2ccccc21)Nc1cccc2cccnc12,6.16,2180
CC(OC(C)(C)C)[C@H](NC(=O)OCC(Cl)(Cl)Cl)C(=O)O (stereo partly drawn),> 100,
c1ccc(CCNc2ccccn2)nc1,> 100,

# Test system: MCF7 breast
# Assay: inhibition of tumour cell growth, NCI panel, 48 h
Structure (SMILES),TGI [µM],GI50 [pM]
Cn1c(=O)c(-c2ccccc2)c(N=[N+]=[N-])c2ccccc21,> 100,
CCC(/C=C/C1OC(=O)C=CC1C)=C\C(C)C/C=C/C(C)=C/C(C)C(=O)C(C)C(O)C(C)C/C(C)=C/C(=O)O (stereo not drawn),,< 1
CC1(C)N=C(N)N=C(N)N1c1ccc(CCc2ccccc2)cc1,> 76.7,
CN(C)CCCN1CCC2(CCC(C(C)(C)C)CC2)CC1,3.07,
Cc1[nH]nc(C(F)(F)F)c1N=NN1CCOCC1,21,
S=C(S)NCNC(=S)S.[Zn+2],> 100,
O=C(O)CCC(NC(=O)c1ccc(Nc2nc3cc(C(F)(F)F)ccc3nc2-c2ccccc2)cc1)C(=O)O (stereo not drawn),> 100,
c1ccc(CCNc2ccccn2)nc1,> 100,

# Test system: NCI-H226 lung
# Assay: inhibition of tumour cell growth, NCI panel, 48 h
Structure (SMILES),TGI [µM],GI50 [nM]
Cn1c(=O)c(-c2ccccc2)c(N=[N+]=[N-])c2ccccc21,> 100,
CCC(/C=C/C1OC(=O)C=CC1C)=C\C(C)C/C=C/C(C)=C/C(C)C(=O)C(C)C(O)C(C)C/C(C)=C/C(=O)O (stereo not drawn),,0.00172
CC1(C)N=C(N)N=C(N)N1c1ccc(CCc2ccccc2)cc1,59.3,
CN(C)CCCN1CCC2(CCC(C(C)(C)C)CC2)CC1,19.9,
Cc1[nH]nc(C(F)(F)F)c1N=NN1CCOCC1,30.4,
C=C(C)[C@@H]1CC[C@]2(C(=O)NC3CCCCC3)CC[C@]3(C)[C@H](CC[C@@H]4[C@@]5(C)CCCNC(C)(C)[C@@H]5CC[C@]43C)[C@@H]12,36.2,4830
CC1(CCOCc2ccccc2)NC(=O)NC1=O (stereo not drawn),> 100,
O=C(Cn1c[n+](CC(=O)c2ccc(-c3ccccc3)cc2)c2ccccc21)Nc1cccc2cccnc12,7.33,2020
O=C(O)CCC(NC(=O)c1ccc(Nc2nc3cc(C(F)(F)F)ccc3nc2-c2ccccc2)cc1)C(=O)O (stereo not drawn),> 100,
c1ccc(CCNc2ccccn2)nc1,> 100,
NCc1ccccc1-c1c2nc(c(-c3ccccc3CN)c3ccc([nH]3)c(-c3ccccc3CN)c3nc(c(-c4ccccc4CN)c4ccc1[nH]4)C=C3)C=C2,33.4,

# Test system: NCI-H522 lung
# Assay: inhibition of tumour cell growth, NCI panel, 48 h
Structure (SMILES),TGI [µM],GI50 [nM]
Cn1c(=O)c(-c2ccccc2)c(N=[N+]=[N-])c2ccccc21,75.5,
CCC(/C=C/C1OC(=O)C=CC1C)=C\C(C)C/C=C/C(C)=C/C(C)C(=O)C(C)C(O)C(C)C/C(C)=C/C(=O)O (stereo not drawn),,0.00622
CC1(C)N=C(N)N=C(N)N1c1ccc(CCc2ccccc2)cc1,33.9,
CN(C)CCCN1CCC2(CCC(C(C)(C)C)CC2)CC1,6.07,
Cc1[nH]nc(C(F)(F)F)c1N=NN1CCOCC1,8.7,
CC1(CCOCc2ccccc2)NC(=O)NC1=O (stereo not drawn),> 100,
O=C(Cn1c[n+](CC(=O)c2ccc(-c3ccccc3)cc2)c2ccccc21)Nc1cccc2cccnc12,3.25,1530
CC(OC(C)(C)C)[C@H](NC(=O)OCC(Cl)(Cl)Cl)C(=O)O (stereo partly drawn),> 100,
O=C(O)CCC(NC(=O)c1ccc(Nc2nc3cc(C(F)(F)F)ccc3nc2-c2ccccc2)cc1)C(=O)O (stereo not drawn),> 91.6,
c1ccc(CCNc2ccccn2)nc1,> 100,

# Test system: OVCAR-8 ovarian
# Assay: inhibition of tumour cell growth, NCI panel, 48 h
Structure (SMILES),TGI [µM],GI50 [pM]
Cn1c(=O)c(-c2ccccc2)c(N=[N+]=[N-])c2ccccc21,> 100,
CCC(/C=C/C1OC(=O)C=CC1C)=C\C(C)C/C=C/C(C)=C/C(C)C(=O)C(C)C(O)C(C)C/C(C)=C/C(=O)O (stereo not drawn),9.77,1.54
CC1(C)N=C(N)N=C(N)N1c1ccc(CCc2ccccc2)cc1,> 100,
CN(C)CCCN1CCC2(CCC(C(C)(C)C)CC2)CC1,16.5,
Cc1[nH]nc(C(F)(F)F)c1N=NN1CCOCC1,13.7,
S=C(S)NCNC(=S)S.[Zn+2],> 100,
CC1(CCOCc2ccccc2)NC(=O)NC1=O (stereo not drawn),> 100,
CC(OC(C)(C)C)[C@H](NC(=O)OCC(Cl)(Cl)Cl)C(=O)O (stereo partly drawn),> 100,
O=C(O)CCC(NC(=O)c1ccc(Nc2nc3cc(C(F)(F)F)ccc3nc2-c2ccccc2)cc1)C(=O)O (stereo not drawn),> 100,
c1ccc(CCNc2ccccn2)nc1,> 100,
NCc1ccccc1-c1c2nc(c(-c3ccccc3CN)c3ccc([nH]3)c(-c3ccccc3CN)c3nc(c(-c4ccccc4CN)c4ccc1[nH]4)C=C3)C=C2,> 100,

# Test system: PC-3 prostate
# Assay: inhibition of tumour cell growth, NCI panel, 48 h
Structure (SMILES),TGI [µM],GI50 [µM]
Cn1c(=O)c(-c2ccccc2)c(N=[N+]=[N-])c2ccccc21,> 100,
CN(C)CCCN1CCC2(CCC(C(C)(C)C)CC2)CC1,10.8,
Cc1[nH]nc(C(F)(F)F)c1N=NN1CCOCC1,24.8,
S=C(S)NCNC(=S)S.[Zn+2],> 100,
CC1(CCOCc2ccccc2)NC(=O)NC1=O (stereo not drawn),> 100,
O=C(Cn1c[n+](CC(=O)c2ccc(-c3ccccc3)cc2)c2ccccc21)Nc1cccc2cccnc12,2.29,1.03
c1ccc(CCNc2ccccn2)nc1,> 100,

# Test system: RPMI-8226 leukemia
# Assay: inhibition of tumour cell growth, NCI panel, 48 h
Structure (SMILES),GI50 [pM],TGI [µM]
CCC(/C=C/C1OC(=O)C=CC1C)=C\C(C)C/C=C/C(C)=C/C(C)C(=O)C(C)C(O)C(C)C/C(C)=C/C(=O)O (stereo not drawn),3.11,
CC1(C)N=C(N)N=C(N)N1c1ccc(CCc2ccccc2)cc1,,> 100
CN(C)CCCN1CCC2(CCC(C(C)(C)C)CC2)CC1,,10.5
Cc1[nH]nc(C(F)(F)F)c1N=NN1CCOCC1,,5.06
S=C(S)NCNC(=S)S.[Zn+2],,> 100
CC(OC(C)(C)C)[C@H](NC(=O)OCC(Cl)(Cl)Cl)C(=O)O (stereo partly drawn),,> 100
O=C(O)CCC(NC(=O)c1ccc(Nc2nc3cc(C(F)(F)F)ccc3nc2-c2ccccc2)cc1)C(=O)O (stereo not drawn),,> 100
NCc1ccccc1-c1c2nc(c(-c3ccccc3CN)c3ccc([nH]3)c(-c3ccccc3CN)c3nc(c(-c4ccccc4CN)c4ccc1[nH]4)C=C3)C=C2,,32.3

# Test system: SK-MEL-2 melanoma
# Assay: inhibition of tumour cell growth, NCI panel, 48 h
Structure (SMILES),GI50 [nM],TGI [µM]
CCC(/C=C/C1OC(=O)C=CC1C)=C\C(C)C/C=C/C(C)=C/C(C)C(=O)C(C)C(O)C(C)C/C(C)=C/C(=O)O (stereo not drawn),0.0281,
CC1(C)N=C(N)N=C(N)N1c1ccc(CCc2ccccc2)cc1,,> 100
CN(C)CCCN1CCC2(CCC(C(C)(C)C)CC2)CC1,,3.26
Cc1[nH]nc(C(F)(F)F)c1N=NN1CCOCC1,,27.1
C=C(C)[C@@H]1CC[C@]2(C(=O)NC3CCCCC3)CC[C@]3(C)[C@H](CC[C@@H]4[C@@]5(C)CCCNC(C)(C)[C@@H]5CC[C@]43C)[C@@H]12,1910,3.72
CC1(CCOCc2ccccc2)NC(=O)NC1=O (stereo not drawn),,> 100
CC(OC(C)(C)C)[C@H](NC(=O)OCC(Cl)(Cl)Cl)C(=O)O (stereo partly drawn),,> 100
O=C(O)CCC(NC(=O)c1ccc(Nc2nc3cc(C(F)(F)F)ccc3nc2-c2ccccc2)cc1)C(=O)O (stereo not drawn),,> 100
c1ccc(CCNc2ccccn2)nc1,,> 100
NCc1ccccc1-c1c2nc(c(-c3ccccc3CN)c3ccc([nH]3)c(-c3ccccc3CN)c3nc(c(-c4ccccc4CN)c4ccc1[nH]4)C=C3)C=C2,,73.9

# Test system: TK-10 renal
# Assay: inhibition of tumour cell growth, NCI panel, 48 h
Structure (SMILES),TGI [µM],GI50 [µM]
Cn1c(=O)c(-c2ccccc2)c(N=[N+]=[N-])c2ccccc21,> 100,
CN(C)CCCN1CCC2(CCC(C(C)(C)C)CC2)CC1,3.34,
Cc1[nH]nc(C(F)(F)F)c1N=NN1CCOCC1,26.7,
C=C(C)[C@@H]1CC[C@]2(C(=O)NC3CCCCC3)CC[C@]3(C)[C@H](CC[C@@H]4[C@@]5(C)CCCNC(C)(C)[C@@H]5CC[C@]43C)[C@@H]12,3.6,1.87
S=C(S)NCNC(=S)S.[Zn+2],> 100,
CC1(CCOCc2ccccc2)NC(=O)NC1=O (stereo not drawn),> 100,
O=C(Cn1c[n+](CC(=O)c2ccc(-c3ccccc3)cc2)c2ccccc21)Nc1cccc2cccnc12,3.74,2.01
CC(OC(C)(C)C)[C@H](NC(=O)OCC(Cl)(Cl)Cl)C(=O)O (stereo partly drawn),> 100,
c1ccc(CCNc2ccccn2)nc1,> 100,
NCc1ccccc1-c1c2nc(c(-c3ccccc3CN)c3ccc([nH]3)c(-c3ccccc3CN)c3nc(c(-c4ccccc4CN)c4ccc1[nH]4)C=C3)C=C2,63.1,

# Test system: U251 CNS
# Assay: inhibition of tumour cell growth, NCI panel, 48 h
Structure (SMILES),TGI [µM],GI50 [pM]
Cn1c(=O)c(-c2ccccc2)c(N=[N+]=[N-])c2ccccc21,> 100,
CCC(/C=C/C1OC(=O)C=CC1C)=C\C(C)C/C=C/C(C)=C/C(C)C(=O)C(C)C(O)C(C)C/C(C)=C/C(=O)O (stereo not drawn),5.89,< 1
CC1(C)N=C(N)N=C(N)N1c1ccc(CCc2ccccc2)cc1,> 100,
CN(C)CCCN1CCC2(CCC(C(C)(C)C)CC2)CC1,3.64,
Cc1[nH]nc(C(F)(F)F)c1N=NN1CCOCC1,27.7,
S=C(S)NCNC(=S)S.[Zn+2],> 100,
CC1(CCOCc2ccccc2)NC(=O)NC1=O (stereo not drawn),> 100,
CC(OC(C)(C)C)[C@H](NC(=O)OCC(Cl)(Cl)Cl)C(=O)O (stereo partly drawn),> 100,
O=C(O)CCC(NC(=O)c1ccc(Nc2nc3cc(C(F)(F)F)ccc3nc2-c2ccccc2)cc1)C(=O)O (stereo not drawn),> 100,
c1ccc(CCNc2ccccn2)nc1,> 100,
NCc1ccccc1-c1c2nc(c(-c3ccccc3CN)c3ccc([nH]3)c(-c3ccccc3CN)c3nc(c(-c4ccccc4CN)c4ccc1[nH]4)C=C3)C=C2,51.6,
